Assay: reduction of pesticide contaminants
Set-up: species or system wheat
Details: after treatment by the method of the invention (ozone)
From the text: A reduction of about 80% in the content of Chlorpyriphosmethyl (a pesticide generally used in the case of wheat) was thus observed, thus leading certainly to a product which is perfectly acceptable from the point of view of the current food standards.

## COP(=S)(OC)Oc1nc(Cl)c(Cl)cc1Cl [Chlorpyriphosmethyl]
  reduction in the content of Chlorpyriphosmethyl: about 80%

From US6915969B2, “Method and installation for making flour from ozone-treated grains” (Green Technologies Sarl, priority 1999, dated 2005)
